{"source": "patent US20250171776A1", "about": "“NON-CANONICAL CELL-PENETRATING PEPTIDES FOR ANTISENSE OLIGOMER DELIVERY” (priority 2023, published 2025)", "key": {"HELA-654 cells": {"tested_on": "HELA-654 cells", "experiment": "Hela-654 eGFP assay (incucyte imaging, GFP positive cells, 72 h)", "type": "cell-based", "settings": "72 h, read-out: EC50 (at 72 h)", "experimental": "HELA-654 cells were imaged at 72 hours with an incucyte and the number of GFP positive cells versus total cell counts were calculated with the incucyte image analysis software. Statistical analysis was conducted using a one-way analysis of variance (ANOVA) test with Dunnett's multiple comparison test. Bars represent mean±standard deviation (SD), with P<0.05 was considered to indicate statistical significance, (**** p<0.0001, *** […], ** p<0.01, * p<0.05).\nHELA-654 cells were imaged at 72 hours with an incucyte and the number of GFP positive cells versus total cell counts were calculated with the incucyte image analysis software."}, "HeLa 654 cells [1]": {"tested_on": "HeLa 654 cells", "experiment": "HeLa 654 eGFP assay (flow cytometry, mean eGFP fluorescence, 22 h)", "type": "cell-based", "settings": "for PMO delivery: eGFP fluorescence relative to PMO alone: 20 μM, HeLa 654 cells, flow cytometry; for PMO delivery at varying concentrations (mean eGFP fluorescence relative to vehicle): 1, 2.5, 5, 10, 25 or 50 μM; for PMO delivery at varying concentrations (mean eGFP fluorescence relative to vehicle) / PMO response (mean eGFP fluorescence relative to vehicle) / PMO delivery (mean eGFP fluorescence relative to vehicle): 22 h; for PMO response (mean eGFP fluorescence relative to vehicle): 2.5 μM, segment-CXP1 conjugates; for PMO delivery (mean eGFP fluorescence relative to vehicle): 1 μM", "experimental": "Purified constructs were then tested using an activity-based readout in which nuclear delivery results in fluorescence. Briefly, HeLa cells stably transfected with an Enhanced Green Fluorescent Protein (eGFP) gene interrupted by a mutated intron of β-globin (IVS2-654) produce a non-fluorescent eGFP protein. As used herein, Hela-654 cells refers to the Hela cells transfected with an Enhanced Green Fluorescent Protein (eGFP) gene interrupted by a mutated intron of β-globin (IVS2-654) and Hela-654 eGFP Assay is used to refer to an Assay that uses the Hela-654 cells. Successful delivery of PMO IVS2-654 to the nucleus results in corrective splicing and eGFP synthesis.\nThe amount of PMO delivered to the nucleus is therefore correlated with eGFP fluorescence, quantified by flow cytometry. Activity was reported as mean fluorescence intensity (MFI) relative to PMO alone. This activity assay provides indirect information on how much active PMO is delivered to the nucleus. Relative efficiency of a PMO-CPP conjugate was characterized by comparing activity to internal concentration.\n[…] 18 h prior to treatment, the cells were plated at a density of 5,000 cells per well in a 96-well plate in DMEM supplemented with 10% FBS and 1% penicillin-streptomycin.\nFor individual peptide testing, PPMOs were dissolved in phosphate buffered saline (PBS) without Ca^2+ or Mg^2+ at a concentration of 1 mM (determined by UV absorbance of the PMO) before being diluted in Dulbecco's modified eagle medium (DMEM). Cells were incubated at the designated concentrations in triplicate for 22 h at 37° C. and 5% CO2. Next, the treatment media was removed, and the cells were washed once before being incubated with 0.25% Trypsin-EDTA for 15 min at 37° C. and 5% CO2. Lifted cells were transferred to a V-bottom 96-well plate and washed once with PBS, before being resuspended in PBS containing 2% FBS and 2 μg/mL propidium iodide (PI). Flow cytometry analysis was carried out on a BD LSRII flow cytometer. Gates were applied to the data to ensure that cells that were positive for propidium iodide or had forward/side scatter readings that were sufficiently different from the main cell population were excluded. Each sample was capped at 5,000 gated events.\nAnalysis was conducted using Graphpad Prism 7 and FlowJo. For each sample, the mean fluorescence intensity (MFI) and the number of gated cells were measured. To report activity, triplicate MFI values were averaged and normalized to the PMO alone condition."}, "HeLa 654 cells [2]": {"tested_on": "HeLa 654 cells", "experiment": "Lactate dehydrogenase (LDH) release assay in HeLa 654 cells", "type": "cell-based", "experimental": "(§1) The media from the cells was analyzed for LDH release with an LDH assay and the percentage of LDH release was calculated relative to fully lysed cells.\n(§2) Cytotoxicity assays were performed in HeLa 654 cells or TH-1 renal cells. TH-1 cells were maintained in DMEM supplemented with 10% (v/v) fetal bovine serum (FBS) and 1% (v/v) penicillin-streptomycin at 37° C. and 5% CO2H-1. Cells were plated at 5,000 cells/well in a 96-well plate 18-hours prior to treatment and treated with PMO-peptide compounds as described above. HeLa cell LDH assays were performed concurrently on the cells treated for Flow cytometry, so all plating and treatment protocols match those described above.\n(§3) 17 hours after cell treatment, the Promega CytoTox lysis solution was added to 3 wells of each plate as a fully lysed control (100% LDH-release). 18 hours after treatment, cell supernatant was transferred to a new 96-well plate for analysis of LDH release. To each well of the 96-well plate containing supernatant was added CytoTox 96 Reagent (Promega). […] Equal volume of Stop Solution was added to each well, mixed, and the absorbance of each well was measured at 490 nm. The measurement of vehicle-treated cells was subtracted from each measurement, and % LDH release was calculated as % cytotoxicity=100×Experimental LDH Release (OD490)/Maximum LDH Release (OD490)."}, "eGFP-654 mice": {"tested_on": "eGFP-654 mice", "experiment": "eGFP-654 mouse study: GFP fluorescence in tissue homogenates", "type": "in vivo", "settings": "20 mg/kg intravenous, tissues collected weekly for 8 weeks", "experimental": "The tissues from a series of organs were homogenized and GFP fluorescence was measured with a spectrophotometer and normalized to tissue quantity (FIG. 9-17). Median effective dose (ED50) was also derived from the dose-response curve. PMO-CXP1 compound exposure was calculated with an enzyme-linked oligonucleotide hybridization assay (ELOHA). Briefly, the ELOHA assay is a two-step hybridization assay where the analyte is bound to both an immobilized capture probe and biotinylated detection probe. Streptavidin-AP-conjugate is added to the mixture and AttoPhos substrate is added to the system and incubated for 10 minutes. Stop solution is added and the plate is read on the spectrophotometer. The compound concentrations were determined from a standard curve. […] Compound efficacy and exposure were calculated in the quadriceps (FIGS. 9-10), heart (FIGS. 11-12), diaphragm (FIGS. 13-14), and kidney (FIGS. 15-16). The compound was also found to have efficacy for up to 56 days in vivo (FIG. 17).\nPPMOs at 3 mg/kg were intravenously delivered to eGFP-654 mice. […] The tissues were homogenized and GFP fluorescence measurements were read for a fluorescence spectrophotometer and normalized to tissue quantity to measure efficacy (FIGS. 26-29). Compound efficacy and exposure were calculated in the quadriceps (FIG. 26), heart (FIG. 27), diaphragm (FIG. 28), and kidney (FIG. 29)."}, "TH-1 renal cells": {"tested_on": "TH-1 renal cells", "experiment": "Lactate dehydrogenase (LDH) release assay in TH-1 renal cells", "type": "cell-based", "settings": "LDH release at 18 hours", "experimental": "as §1, §2, §3"}, "[3]": {"settings": "chimeric peptide PMO conjugates"}}, "note": "Read-outs that look alike come from different tables or passages of the source. Where no end group is shown, it is not given here. [ ]: non-standard residue; d: D form. 2Nal = N[C@@H](Cc1ccc2ccccc2c1)C(=O)O; Cit = NC(=O)NCCC[C@H](N)C(=O)O; Api = NC1(C(=O)O)CCNCC1; Dab = NCC[C@H](N)C(=O)O; Iph = iodophenylalanine"}
{"substance": "Asn-Phe-Lys-Gln-Nap-His-Ala-Gly-Dab-Arg-Lys-Trp-Lys-Lys (NFKQ[2Nal]HAG[Dab]RKWKK; also: PMO conjugate) [PMO-CXP2]", "values": [{"measurement": "EC50", "setting": "HELA-654 cells", "result": 11.5, "unit": "µM"}, {"measurement": "PMO delivery: eGFP fluorescence relative to PMO alone", "setting": "HeLa 654 cells [1]", "result": "high levels of PMO delivery"}, {"measurement": "PMO delivery at varying concentrations (mean eGFP fluorescence relative to vehicle)", "setting": "HeLa 654 cells [1]", "result": "dose-dependent delivery of PMO"}]}
{"substance": "Cit-Met-Phe-Gly-Pip-Dab-Dab-Lys-Ala-Pro-Lys-Trp-Lys-Lys ([Cit]MFG[Api][Dab][Dab]KAPKWKK; also: PMO conjugate) [PMO-CXP4]", "values": [{"measurement": "EC50", "setting": "HELA-654 cells", "result": 4.57, "unit": "µM"}, {"measurement": "PMO delivery: eGFP fluorescence relative to PMO alone", "setting": "HeLa 654 cells [1]", "result": "high levels of PMO delivery"}, {"measurement": "PMO delivery at varying concentrations (mean eGFP fluorescence relative to vehicle)", "setting": "HeLa 654 cells [1]", "result": "dose-dependent delivery of PMO"}]}
{"substance": "Iph-Gly-Arg-Gly-Pip-Lys-Gln-Lys-Thr-Ser-Iph-Gly-Arg-Gly-Pip-Lys-Trp-Lys-Lys ([Iph]GRG[Api]KQKTS[Iph]GRG[Api]KWKK; also: PMO conjugate) [SA-CXP1]", "values": [{"measurement": "EC50", "setting": "HELA-654 cells; [3]", "result": 1.57, "unit": "µM"}, {"measurement": "PMO response (mean eGFP fluorescence relative to vehicle)", "setting": "HeLa 654 cells [1]", "result": "highest PMO response compared to the other segment-CXP1 sequences"}, {"measurement": "Toxicity: LDH release", "setting": "HeLa 654 cells [2]; 25 μM", "result": "toxicity closest to the parent CXP1-CXP1 peptide"}]}
{"substance": "Lys-Gln-Lys-Thr-Ser-Iph-Gly-Arg-Gly-Pip-Lys-Trp-Lys-Lys (KQKTS[Iph]GRG[Api]KWKK-NH2; also: PMO conjugated via DBCO linker) [PMO-CXP1]", "values": [{"measurement": "EC50", "setting": "HELA-654 cells", "result": 7.08, "unit": "µM"}, {"measurement": "Duration of efficacy in vivo", "setting": "eGFP-654 mice", "result": "up to 56 days"}, {"measurement": "PMO delivery: eGFP fluorescence relative to PMO alone", "setting": "HeLa 654 cells [1]", "result": "high levels of PMO delivery"}, {"measurement": "PMO delivery at varying concentrations (mean eGFP fluorescence relative to vehicle)", "setting": "HeLa 654 cells [1]", "result": "dose-dependent delivery of PMO"}]}
{"substance": "Lys-Gln-Lys-Thr-Ser-Iph-Gly-Arg-Lys-Trp-Lys-Gln-Lys-Thr-Ser-Iph-Gly-Arg-Lys-Trp-Lys-Lys (KQKTS[Iph]GRKWKQKTS[Iph]GRKWKK; not fully specified (N-terminus, C-terminus); printed as Lys-Gln-Lys-Thr-Ser-Iph-Gly-Arg-Lys-Trp-Lys-Gln-Lys-Thr-Ser-Iph-Gly-Arg-Lys-Trp-Lys-Lys; also: PMO IVS2-654 conjugate) [CXD1B]", "values": [{"measurement": "EC50", "setting": "HELA-654 cells; [3]", "result": 3.54, "unit": "µM"}, {"measurement": "Therapeutic window (HeLa-654 eGFP efficacy versus LDH release in TH-1 renal cells)", "setting": "TH-1 renal cells", "result": "wider therapeutic window in comparison to other PMO-peptide conjugates"}, {"measurement": "PMO delivery (mean eGFP fluorescence relative to vehicle)", "setting": "HeLa 654 cells [1]", "result": "high PMO delivery"}, {"measurement": "Toxicity: LDH release", "setting": "HeLa 654 cells [2]; 50 μM", "result": "lower toxicity than the CXP1-CXP1 sequence"}]}
{"substance": "Lys-Thr-Ser-Iph-Gly-Arg-Lys-Gln-Lys-Thr-Ser-Iph-Gly-Arg-Gly-Pip-Lys-Trp-Lys-Lys (KTS[Iph]GRKQKTS[Iph]GRG[Api]KWKK; not fully specified (C-terminus); printed as Lys-Thr-Ser-Iph-Gly-Arg-Lys-Gln-Lys-Thr-Ser-Iph-Gly-Arg-Gly-Pip-Lys-Trp-Lys-Lys; also: PMO conjugate) [SB-CXP1]", "values": [{"measurement": "EC50", "setting": "HELA-654 cells; [3]", "result": 2.08, "unit": "µM"}, {"measurement": "PMO response (mean eGFP fluorescence relative to vehicle)", "setting": "HeLa 654 cells [1]", "result": "highest PMO response compared to the other segment-CXP1 sequences"}]}
{"substance": "Lys-Thr-Ser-Iph-Gly-Arg-Lys-Gln-Lys-Thr-Ser-Iph-Gly-Arg-Lys-Trp-Lys-Lys (KTS[Iph]GRKQKTS[Iph]GRKWKK; not fully specified (N-terminus, C-terminus); printed as Lys-Thr-Ser-Iph-Gly-Arg-Lys-Gln-Lys-Thr-Ser-Iph-Gly-Arg-Lys-Trp-Lys-Lys; also: PMO IVS2-654 conjugate) [CXD1A]", "values": [{"measurement": "EC50", "setting": "HELA-654 cells; [3]", "result": 3.35, "unit": "µM"}, {"measurement": "PMO delivery (mean eGFP fluorescence relative to vehicle)", "setting": "HeLa 654 cells [1]", "result": "high PMO delivery"}]}
{"substance": "[Dab]VARNN[Dab]TKGKWKK [PMO-CXP3]", "values": [{"measurement": "EC50", "setting": "HELA-654 cells", "result": 13.8, "unit": "µM"}, {"measurement": "PMO delivery: eGFP fluorescence relative to PMO alone", "setting": "HeLa 654 cells [1]", "result": "high levels of PMO delivery"}, {"measurement": "PMO delivery at varying concentrations (mean eGFP fluorescence relative to vehicle)", "setting": "HeLa 654 cells [1]", "result": "dose-dependent delivery of PMO"}]}
